Source: US20260345619A1 (Principia Biopharma Inc., priority 2023, published 2026)

Legend:
BTK = conditions: preclinical assays; cited from earlier work
[1] = Participants with ≥2, ≥3, ≥4, ≥5 additional reliever puffs of salbutamol/albuterol or levosalbutamol/levalbuterol; type: in vivo, human; conditions: for Number of participants with ≥2 additional reliever puffs vs baseline on 2 consecutive days / Number of participants with ≥3 additional reliever puffs vs baseline on 2 consecutive days / Number of participants with ≥4 additional reliever puffs vs baseline on 2 consecutive days / Number of participants with ≥5 additional reliever puffs vs baseline on 2 consecutive days / Participants with ≥2 additional reliever puffs vs baseline on 2 consecutive days, figure in parentheses (share) / Participants with ≥3 additional reliever puffs vs baseline on 2 consecutive days, figure in parentheses (share) / Participants with ≥4 additional reliever puffs vs baseline on 2 consecutive days, figure in parentheses (share) / Participants with ≥5 additional reliever puffs vs baseline on 2 consecutive days, figure in parentheses (share): 12-week treatment period
Protocol: An analysis was performed on the number of participants with ≥2, ≥3, ≥4, and ≥5 additional reliever puffs of salbutamol/albuterol or levosalbutamol/levalbuterol compared with baseline on 2 consecutive days during the treatment period, to assess increase in reliever medication during 12-week treatment period.

SMILES: CC(C)(C=C(C#N)C(=O)N1CCC[C@@H](n2nc(-c3ccc(Oc4ccccc4)cc3F)c3c(N)ncnc32)C1)N1CCN(C2COC2)CC1 (mixture of isomers) [rilzabrutinib, (R)-2-[3-[4-amino-3-(2-fluoro-4-phenoxy-phenyl)pyrazolo[3,4-d]pyrimidin-1-yl]piperidine-1-carbonyl]-4-methyl-4-[4-(oxetan-3-yl)piperazin-1-yl]pent-2-enenitrile]
- binding to BTK over time (BTK): persisted
- Number of participants with ≥2 additional reliever puffs vs baseline on 2 consecutive days ([1]; 400 mg BID, N = 32): 6 participants
- Number of participants with ≥3 additional reliever puffs vs baseline on 2 consecutive days ([1]; 400 mg BID, N = 32): 3 participants
- Number of participants with ≥4 additional reliever puffs vs baseline on 2 consecutive days ([1]; 400 mg BID, N = 32): 2 participants
- Number of participants with ≥5 additional reliever puffs vs baseline on 2 consecutive days ([1]; 400 mg BID, N = 32): 2 participants
- Participants with ≥2 additional reliever puffs vs baseline on 2 consecutive days, figure in parentheses (share) ([1]; 400 mg BID, N = 32): 18.8
- Participants with ≥3 additional reliever puffs vs baseline on 2 consecutive days, figure in parentheses (share) ([1]; 400 mg BID, N = 32): 9.4
- Participants with ≥4 additional reliever puffs vs baseline on 2 consecutive days, figure in parentheses (share) ([1]; 400 mg BID, N = 32): 6.3
- Participants with ≥5 additional reliever puffs vs baseline on 2 consecutive days, figure in parentheses (share) ([1]; 400 mg BID, N = 32): 6.3
- Number of participants with ≥2 additional reliever puffs vs baseline on 2 consecutive days ([1]; 400 mg TID, N = 64): 11 participants
- Number of participants with ≥3 additional reliever puffs vs baseline on 2 consecutive days ([1]; 400 mg TID, N = 64): 4 participants
- Number of participants with ≥4 additional reliever puffs vs baseline on 2 consecutive days ([1]; 400 mg TID, N = 64): 3 participants
- Number of participants with ≥5 additional reliever puffs vs baseline on 2 consecutive days ([1]; 400 mg TID, N = 64): 1 participants
- Participants with ≥2 additional reliever puffs vs baseline on 2 consecutive days, figure in parentheses (share) ([1]; 400 mg TID, N = 64): 17.2
- Participants with ≥3 additional reliever puffs vs baseline on 2 consecutive days, figure in parentheses (share) ([1]; 400 mg TID, N = 64): 6.3
- Participants with ≥4 additional reliever puffs vs baseline on 2 consecutive days, figure in parentheses (share) ([1]; 400 mg TID, N = 64): 4.7
- Participants with ≥5 additional reliever puffs vs baseline on 2 consecutive days, figure in parentheses (share) ([1]; 400 mg TID, N = 64): 1.6
- number of participants with ≥2 to 5 additional reliever puffs compared to baseline ([1]; both cohorts, vs. placebo arms, 12-week treatment): lower in the rilzabrutinib arms compared to the placebo arms
